Laboratory results taken from PubChem BioAssay AID179 (DTP/NCI, 2004).
Values joined by “and” are separate entries in the source; they are usually repeats but may differ in a detail not shown here. Equal values may be shown once. Active and inactive are the calls of the source.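 Rule for the calls: active = compounds giving half or more protection of infected cells from virus-caused growth loss, again on retest; inactive = the rest.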

Tested on: CEM cells HIV-1 protection, formazan growth assay
Assay: NCI AIDS Antiviral Assay
Conditions: for IC50: measured here: growth of uninfected CEM cells
Procedure, shortened: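 Five concentrations of each compound were applied to infected and uninfected human CEM cells. Protection from HIV-1 was judged from growth measured with a soluble formazan assay.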

Compound	EC50 [µM]	IC50	outcome
Cc1cn(C2CC(O[Si](C)(C)C(C)(C)C)C(/C=[N+](/[O-])C(C)(C)C)O2)c(=O)[nH]c1=O (stereo not given)	> 120	33.9 µM	–
O=c1cc(CN2CCCCC2)[nH]c2c1ccc1nc(CN3CCCCC3)cc(=O)n12	> 100	> 100 µM	–
CC(C)(C)OC(=O)NS(=O)(=O)Nc1ccccc1	> 200	> 200 µM	–
NS(=O)(=O)c1nnc(NSc2ccc([N+](=O)[O-])cc2)s1	> 200	46.8 µM	–
CCOC(=O)CC(=O)Sc1ccccc1	> 251	20.9 µM	–
NCCN1CCCCCc2ccccc21	> 200	123 µM	–
O=S(=O)(O)CCCCBr	> 200	> 200 µM	–
O=C1c2ccccc2C2(O)N(c3ccccc3)C(=S)N(c3ccccc3)C12O (stereo not given)	> 646	316 µM	–
c1cc(NC2=NCCO2)c2c(c1)OCO2	> 200	> 200 µM	–
COC1/C=C\OC2(C)Oc3c(C)c(O)c4c(O)c(c(CN(C)C)c(O)c4c3C2=O)NC(=O)/C(C)=C\C=C/C(C)C(O)C(C)C(O)C(C)C(OC(C)=O)C1C (stereo not given)	–	–	inactive
CC(C)(C)[Si](C)(C)OCC1OC(n2cc(I)c(=O)[nH]c2=O)C(O[Si](C)(C)C(C)(C)C)C1O[Si](C)(C)C(C)(C)C (stereo not given)	> 200	17.4 µM	–
CC(=O)Nc1ccc2nncnc2c1	> 200	> 200 µM	–
COC(=O)C1(C(=O)OC)Cc2ccc(OC)cc2C2=C1C(=O)c1ccccc1C2=O	> 20	0.275 µM	–
CCOc1ccccc1-n1c(-c2ccc([N+](=O)[O-])cc2)csc1=NC(=O)c1cccc([N+](=O)[O-])c1	> 200	186 µM	–
C[C@H](O)C(=O)SC[C@H](NC(=O)CC[C@@H](N)C(=O)O)C(=O)NCC(=O)O	> 200	> 200 µM	–
CC(C)=CCC[C@@H](C)C1=C(O)C(Nc2ccccc2Cl)=C(C)C(=O)C1=O	> 200	6.31 µM	–
Nc1nc(=S)c2[nH]cnc2[nH]1	> 60.3	0.955 µM	–
COC1OOC(OC)c2ccccc2-c2ccccc21 (stereo not given)	> 200	12.3 µM	–
NC1=CN(CCCO)C2=N/C(=C\c3ccco3)C(=O)N12	–	–	inactive
O=c1[nH][nH]c(=O)c2c1[nH]c(=S)n2-c1ccccc1	> 200	> 200 µM	–
CC(C)SC1CC2C(CC1(C)O)C2(C)C (stereo not given)	> 200	> 200 µM and 91.2 µM	–

Compound	EC50 [µM]	IC50	outcome
Clc1nc2cc3nc(Cl)c(Cl)nc3cc2nc1Cl	> 50.1	33.1 µM	–
O=C(O)CCCCCCCCCCCOc1ccccc1	> 200	63.1 µM	–
COC1/C=C\OC2(C)Oc3c(C)c(O)c4c(O)c(c(C=Nc5ccccc5C)c(O)c4c3C2=O)NC(=O)/C(C)=C\C=C/C(C)C(O)C(C)C(O)C(C)C(OC(C)=O)C1C (stereo not given)	> 200	29.5 µM	–
CN1c2ccccc2N(C)P1(=S)c1ccccc1	> 200	26.9 µM	–
Cn1cc2c(c1-c1ccccc1)[n+](=O)c1ccccc1n2[O-]	5.13	32.4 µM	–
O=C1NC(N/N=C\C(O)C(O)C(O)C(O)CO)=N/C1=C\c1ccc(Cl)cc1 (stereo not given)	> 200	33.9 µM	–
O=C[C@@H](CO)O[C@H](C=O)c1c[nH]c(=O)[nH]c1=O	> 1020	107 µM	–
O=C1C=C2C(=CCOC2O)O1 (stereo not given)	> 16.2	0.191 µM	–
C=CCP(=O)(CC=C)C(Cl)Cl	> 200	> 200 µM	–
CCN(CC)CCO/N=C1\CC[C@H]2[C@@H]3CCc4cc(OC)ccc4[C@H]3CC[C@]12C	> 20	2.69 µM	–
C=CCn1c(=O)c2ccccc2[n+]2c(C)c(C(=O)OCC)sc12	132	> 200 µM	–
CCCCNC(=S)Nc1nc(C(=O)NNC(=S)Nc2ccccc2)cs1	58.9	> 200 µM	–
CCOC(=O)c1nc2cc(Cl)ccc2[nH]c1=O	> 200	105 µM	–
COc1cc([C@H]2Oc3cc([C@H]4Oc5cc(O)cc(O)c5C(=O)[C@@H]4O)ccc3O[C@@H]2CO)ccc1O	> 200	66.1 µM	–
N#Cc1nc(/C=C/c2nc(C#N)c(N)o2)oc1N	> 100	> 100 µM	–
COc1ccc2cc(C(=O)NCCCNC(=O)c3ccc4cc(OC)ccc4c3)ccc2c1	–	–	inactive
CC1(C)OC[C@@H](C[C@H](O)COCc2ccccc2)O1	> 200	> 200 µM	–
Cc1ccc2c(CC(=O)O)cc(=O)oc2c1C	> 200	155 µM	–
CC1=NN(C(=O)c2ccc(O)cc2)C(=O)C1N=Nc1ccccc1C(=O)O (stereo not given)	–	–	inactive
NCCCCC(=O)NC(CCCCNC(=O)OCc1ccccc1)C(=O)NCCCCC(=O)NC(CCCCNC(=O)OCc1ccccc1)C(=O)NCCCCC(=O)NC(CCCCNC(=O)OCc1ccccc1)C(=O)NCCCCC(=O)NC(CCCCNC(=O)OCc1ccccc1)C(=O)NCCCCC(=O)NC(CCCCNC(=O)OCc1ccccc1)C(=O)NCCCCC(=O)NC(CCCCNC(=O)OCc1ccccc1)C(=O)NCCCCC(=O)NC(CCCCNC(=O)OCc1ccccc1)C(=O)O (stereo not given)	> 7.08	> 7.08 µM	–
C=CCNC(=S)N/C=C(\c1ccccc1)S(=O)Cc1ccccc1 (stereo not given)	> 200	> 200 µM	–

Compound	EC50 [µM]	IC50	outcome
CO[C@H]1/C=C/O[C@@]2(C)Oc3c(C)c(O)c4c(O)c(c(/C=N/N5C(C)CN(Cc6ccc(C#N)cc6)CC5C)c(O)c4c3C2=O)NC(=O)/C(C)=C\C=C\[C@H](C)[C@H](O)[C@@H](C)[C@@H](O)[C@@H](C)[C@H](OC(C)=O)[C@@H]1C (stereo not given in full)	> 200	9.12 µM	–
O=C(Cc1nc2ccccc2s1)C(=O)Nc1ccc(Cl)cc1	–	–	inactive
S=C(N/N=C(/c1ccccc1)c1ccccn1)Nc1ccc(Cl)cc1	> 0.2	0.123 µM	–
C/C(=N\NC(N)=O)c1ccccc1	–	–	inactive
CN(C)CCCNC(=O)c1cc(NC(=O)c2cc(NC(=O)c3cc(NC(=O)c4ncccc4C(=O)O)cn3C)cn2C)cn1C	> 200	> 200 µM	–
CCOC(=O)C1=C2c3cccnc3-c3ccccc3N2C(C(=O)OCC)C1C(=O)OCC (stereo not given)	–	–	inactive
CCCCCCSCC/C(C)=N\OC	> 200	> 200 µM	–
CN(C)CCNc1ccc(NCCN(C)C)c2c1C(=O)c1ncsc1C2=O	> 100	0.724 µM	–
COc1ccc(NC(=O)CC/C(CC(=O)c2ccco2)=N/NC(N)=S)cc1	–	–	inactive
COC(=O)CC(NC(=O)OCc1ccccc1)C(C(=O)OCc1ccccc1)C1(C)OCCO1 (stereo not given)	> 50.1	34.7 µM	–
Clc1ccc(-c2nnc(-c3nn(-c4ccccc4)c4nc5ccccc5nc34)o2)cc1	> 1.29	> 1.29 µM	–
C/C(=N\NC(=S)N1CCN(c2ccccn2)CC1)c1cccc2cccnc12	> 45.7	0.0417 µM	–
Cc1cc(=O)oc2c(C3=NN(C=O)C(c4ccccc4)C3)c(O)ccc12 (stereo not given)	–	–	inactive
Cc1cc(=O)[nH]c(CNC(=O)c2cccc3ccccc23)n1	> 851	> 851 µM	–
COc1ccc2nc3ccc(OC)cc3c(SCCO)c2c1	> 200	8.51 µM	–
CC(C)C(NC(=O)C(Cc1ccccc1)NC(=O)[C@H]1CCC[C@H]1NC(=O)C(Cc1ccc(OC(C)(C)C)cc1)NC(=O)OC(C)(C)C)C(N)=O (stereo not given in full)	> 200	29.5 µM	–
CCOC(=O)c1c(O)cn2c1[nH]c1cccc3cccc2c31	> 100	25.7 µM	–
CC(=O)Nc1c(I)c(C(=O)O)c(I)c(N(C)C(C)=O)c1I	> 200	> 200 µM	–
O=S(=O)(Nc1nnc2ccc3ccccc3n12)c1ccc(Cl)cc1S	> 200	105 µM	–
COc1ccc2c(C)cc(=O)oc2c1	> 200	> 200 µM	–
CN1C(=O)N(C)C(O)C1O (stereo not given)	> 200	> 200 µM	–

Compound	EC50 [µM]	IC50	outcome
CCN(CC)CCN1C(=O)c2cccc3c(N)c(OC)cc(c23)C1=O	> 200	3.39 µM	–
O=C(O)Cn1ccc(=O)c2ccc([N+](=O)[O-])cc21	> 200	> 200 µM	–
Cc1cn([C@@H]2C[C@@H]2CO)c(=O)[nH]c1=O	–	–	inactive
N#C/C(=C\c1ccccc1[N+](=O)[O-])c1ccccc1	> 5.75	> 5.75 µM	–
CC(=O)C1=C(N=[N+]=[N-])c2cccc3cccc(c23)C1=O	–	–	inactive
O=C(N1CCN(CCO)CC1)N1c2ccccc2Sc2ccccc21	> 200	117 µM	–
CCOc1ncnc2ccc(Cl)c(I)c12	> 77.6	> 77.6 µM	–
CC(C)CCC[C@@H](C)C1CCC2[C@@H]3CC=C4C[C@@H](OP(=O)([O-])OCC[N+](C)(C)C)CC[C@]4(C)C3CC[C@@]21C (stereo not given in full)	> 39.8	20.4 µM	–
CCOC(=O)C(=C/C=C/NCCc1c[nH]c2ccccc12)C(=O)OCC	> 10.7	> 10.7 µM	–
O=S(O)CCCCCSSc1ccccc1	–	–	inactive
Cc1nc(Nc2ccccc2)sc1C(=O)NNc1ccc([N+](=O)[O-])cc1[N+](=O)[O-]	> 63.1	38 µM	–
O=C1CCCCC1CN1CCCC1 (stereo not given)	–	–	inactive
Cn1cnc([N+](=O)[O-])c1Sc1ccccc1C(=O)O	> 339	> 339 µM	–
COc1cccc(/C=C/c2nc3ccccc3nc2/C=C/c2cccc(OC)c2OC)c1OC	> 200	55 µM	–
CC(C)=CCNc1ncnc2c1ncn2C1OC(CO)C(O)C1O (stereo not given)	> 200	15.5 µM	–
CC1(C)CC(C2CC(C)(C)CC(C)(C)[C@H]2O)[C@@H](O)C(C)(C)C1 (stereo not given in full)	> 12	> 12 µM	–
O=C(NCCCN1CC2CCCC2C1)C(c1ccccc1)c1ccccc1 (stereo not given)	> 200	39.8 µM	–
Cc1cc(NC(=O)Nc2ccc(N=Nc3cc(S(=O)(=O)[O-])c4cccc(S(=O)(=O)[O-])c4c3)c(C)c2)ccc1N=Nc1cc(S(=O)(=O)[O-])c2cccc(S(=O)(=O)[O-])c2c1.[Ga]	> 75.9	13.5 µM	–
COC(=O)/C=C/C(=N/Nc1ccccc1)c1ccccc1	> 200	28.8 µM	–
CC1C(=O)C2C1CS2(=O)=O (stereo not given)	> 1260	1120 µM	–
CC1(C)CC2(C)ON=C(c3ccccc3)N2c2ccccc2N1 (stereo not given)	57.5	105 µM	–
